{"source": "ChEMBL document CHEMBL5543140", "about": "(J Med Chem, 2024)", "key": {"[1]": {"assay": "MRTinf in male Sprague-Dawley rat brain at 1 mg/kg, iv measured upto 8 hrs by LC-MS/MS analysis", "format": "ADME, organism-based"}, "[2]": {"target": "T1, 5-hydroxytryptamine receptor 2A (Homo sapiens, UniProt P28223)", "T1 sequence (P28223 whole entry)": "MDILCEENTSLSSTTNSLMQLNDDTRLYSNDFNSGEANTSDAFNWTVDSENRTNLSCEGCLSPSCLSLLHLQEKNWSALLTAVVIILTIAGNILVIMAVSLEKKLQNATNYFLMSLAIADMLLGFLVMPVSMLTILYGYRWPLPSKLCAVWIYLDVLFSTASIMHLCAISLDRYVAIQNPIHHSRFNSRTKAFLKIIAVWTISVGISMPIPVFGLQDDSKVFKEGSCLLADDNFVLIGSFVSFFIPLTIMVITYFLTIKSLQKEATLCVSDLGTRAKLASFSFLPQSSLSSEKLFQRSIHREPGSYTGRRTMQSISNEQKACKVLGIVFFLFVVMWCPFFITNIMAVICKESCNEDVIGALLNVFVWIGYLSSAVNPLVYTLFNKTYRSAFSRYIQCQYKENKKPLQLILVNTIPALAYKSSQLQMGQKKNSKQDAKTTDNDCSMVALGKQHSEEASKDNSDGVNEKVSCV", "assay": "Agonist activity at human 5-HT2A receptor expressed in HEK293 cells assessed as IP2 production measured after 30 mins incubation by HTRF assay", "format": "functional, cell-based", "conditions": "read-out: EC50"}, "[3]": {"tested_on": "Brain", "assay": "Drug binding in male Sprague-Dawley rat brain homogenate at 1 mg/kg, iv measured upto 8 hrs by LC-MS/MS analysis", "format": "ADME, organism-based", "conditions": "in vivo"}, "[4]": {"tested_on": "Mus musculus", "assay": "Locomotor activity in C57BL/6J mouse assessed as distance traveled at 3 mg/kg, sc measured for 15 to 25 mins (reference value: 1710 +/- 120 cm) by Ethovision tracking system", "format": "functional", "conditions": "time 15-25 min"}, "[5]": {"target": "5-hydroxytryptamine receptor 6 (Homo sapiens, UniProt P50406)", "sequence (P50406 whole entry)": "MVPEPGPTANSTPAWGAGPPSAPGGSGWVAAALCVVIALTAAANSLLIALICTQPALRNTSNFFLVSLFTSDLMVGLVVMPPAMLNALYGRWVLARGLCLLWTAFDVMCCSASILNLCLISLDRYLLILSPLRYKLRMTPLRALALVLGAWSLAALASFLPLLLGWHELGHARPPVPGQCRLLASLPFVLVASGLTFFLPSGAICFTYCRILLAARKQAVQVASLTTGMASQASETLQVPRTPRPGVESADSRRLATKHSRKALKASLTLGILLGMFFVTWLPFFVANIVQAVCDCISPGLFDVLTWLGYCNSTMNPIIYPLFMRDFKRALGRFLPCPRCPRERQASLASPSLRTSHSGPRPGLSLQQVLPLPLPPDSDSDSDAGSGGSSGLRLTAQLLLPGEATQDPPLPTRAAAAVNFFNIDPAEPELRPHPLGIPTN", "assay": "Displacement of [3H]LSD from 5-HT6 receptor (unknown origin) assessed as inhibition binding at 10 uM relative to control"}, "[6]": {"assay": "AUClast in Wistar rat brain at 5 mg/kg, po measured upto 48 hrs", "format": "ADME, organism-based"}, "[7]": {"assay": "Cmax in Wistar rat plasma at 5 mg/kg, po measured upto 48 hrs", "format": "ADME, organism-based"}, "[8]": {"assay": "AUClast in male Sprague-Dawley rat plasma at 1 mg/kg, iv measured upto 8 hrs by LC-MS/MS analysis", "format": "ADME, organism-based"}, "[9]": {"assay": "Tmax in Wistar rat brain at 1 mg/kg, iv measured upto 48 hrs", "format": "ADME, organism-based"}, "[10]": {"target": "5-hydroxytryptamine receptor 1B (Homo sapiens, UniProt P28222)", "sequence (P28222 whole entry)": "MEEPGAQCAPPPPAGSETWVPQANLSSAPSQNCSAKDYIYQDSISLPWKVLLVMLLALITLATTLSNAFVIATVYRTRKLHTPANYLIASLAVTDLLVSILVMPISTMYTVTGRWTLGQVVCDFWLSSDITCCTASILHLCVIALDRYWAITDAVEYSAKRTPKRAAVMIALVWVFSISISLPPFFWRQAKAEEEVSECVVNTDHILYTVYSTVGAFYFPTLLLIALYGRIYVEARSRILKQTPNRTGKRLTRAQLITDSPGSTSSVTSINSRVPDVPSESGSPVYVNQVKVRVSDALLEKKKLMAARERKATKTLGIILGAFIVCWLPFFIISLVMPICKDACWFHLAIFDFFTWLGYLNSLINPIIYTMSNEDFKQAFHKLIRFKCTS", "assay": "Displacement of [3H]5-CT from 5-HT1B receptor (unknown origin) assessed as inhibition binding"}, "[11]": {"target": "Alpha-2A adrenergic receptor (Homo sapiens, UniProt P08913)", "sequence (P08913 whole entry)": "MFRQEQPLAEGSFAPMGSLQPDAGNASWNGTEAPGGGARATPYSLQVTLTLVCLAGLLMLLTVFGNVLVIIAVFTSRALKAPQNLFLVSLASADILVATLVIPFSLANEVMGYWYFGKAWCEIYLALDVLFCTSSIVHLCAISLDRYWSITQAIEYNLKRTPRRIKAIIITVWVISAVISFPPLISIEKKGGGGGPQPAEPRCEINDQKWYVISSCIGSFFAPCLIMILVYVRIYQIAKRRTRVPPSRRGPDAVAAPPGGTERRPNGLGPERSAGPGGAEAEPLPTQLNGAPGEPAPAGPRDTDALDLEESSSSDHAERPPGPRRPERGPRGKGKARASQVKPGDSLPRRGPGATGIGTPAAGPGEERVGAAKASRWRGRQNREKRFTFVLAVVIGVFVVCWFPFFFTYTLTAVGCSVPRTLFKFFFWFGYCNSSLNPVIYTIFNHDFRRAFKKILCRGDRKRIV", "assay": "Agonist activity at human recombinant adrenergic alpha-2A receptor expressed in CHO-K1 cells co-transfected with 22F-Glosensor assessed as inhibition of cAMP production measured after 30 mins incubation by Microbeta2Micro-plate counter analysis", "format": "functional, cell-based"}, "[12]": {"assay": "AUClast in beagle dog at 0.4 mg/kg, iv measured upto 24 hrs", "format": "ADME, organism-based, Canis lupus familiaris", "conditions": "in vivo"}, "[13]": {"assay": "CSF to plasma ratio in male Sprague-Dawley rat at 1 mg/kg, iv measured upto 8 hrs by LC-MS/MS analysis", "format": "ADME, organism-based", "conditions": "CSF and plasma"}, "[14]": {"assay": "Ex vivo binding in C57BL/6J mouse brain frontal cortex assessed as inhibition of [3H]Cimbi-36 binding at 1 mg/kg, sc measured after 220 mins by liquid scintillation counting analysis (reference value: 0%)", "format": "functional", "conditions": "3.667 h"}, "[15]": {"target": "5-hydroxytryptamine receptor 7 (Homo sapiens, UniProt P34969)", "sequence (P34969 whole entry)": "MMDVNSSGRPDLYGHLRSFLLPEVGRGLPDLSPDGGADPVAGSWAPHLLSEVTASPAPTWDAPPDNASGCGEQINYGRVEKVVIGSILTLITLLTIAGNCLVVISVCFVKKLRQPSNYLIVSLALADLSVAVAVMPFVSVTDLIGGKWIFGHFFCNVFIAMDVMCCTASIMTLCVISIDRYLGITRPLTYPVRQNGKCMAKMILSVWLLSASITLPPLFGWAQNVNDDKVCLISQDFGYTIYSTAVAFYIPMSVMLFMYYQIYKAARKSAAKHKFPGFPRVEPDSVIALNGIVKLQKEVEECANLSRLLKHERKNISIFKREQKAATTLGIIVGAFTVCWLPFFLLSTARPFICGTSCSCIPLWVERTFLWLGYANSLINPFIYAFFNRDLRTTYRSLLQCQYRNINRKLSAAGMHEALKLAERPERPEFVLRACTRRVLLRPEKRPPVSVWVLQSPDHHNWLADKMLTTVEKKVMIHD", "assay": "Displacement of [3H]LSD from 5-HT7 receptor (unknown origin) assessed as inhibition binding at 10 uM relative to control"}, "[16]": {"assay": "Half life in beagle dog at 2 mg/kg, po measured upto 24 hrs", "format": "ADME, organism-based, Canis lupus familiaris", "conditions": "in vivo"}, "[17]": {"assay": "Ex vivo binding in C57BL/6J mouse brain frontal cortex assessed as inhibition of [3H]Cimbi-36 binding at 1 mg/kg, sc measured after 40 mins by liquid scintillation counting analysis (reference value: 0%)", "format": "functional"}, "[18]": {"assay": "AUCinf in male Sprague-Dawley rat brain at 1 mg/kg, iv measured upto 8 hrs by LC-MS/MS analysis", "format": "ADME, organism-based"}, "[19]": {"assay": "Clearance in beagle dog at 0.4 mg/kg, iv measured upto 24 hrs", "format": "ADME, organism-based, Canis lupus familiaris", "conditions": "in vivo"}, "[20]": {"assay": "Volume of distribution at steady state in beagle dog at 0.4 mg/kg, iv measured upto 24 hrs", "format": "ADME, organism-based, Canis lupus familiaris", "conditions": "in vivo, read-out: Vdss"}, "[21]": {"tested_on": "Mus musculus", "assay": "Psychedelic effect in C57BL/6J mouse assessed as induction of 5-HT2A receptor dependent maximal head-twitch responses by visual observation at 1 mg/kg, sc measured after 24 hrs", "format": "functional, organism-based"}, "[22]": {"target": "T2, 5-hydroxytryptamine receptor 1A (Homo sapiens) (UniProt P08908)", "T2 sequence (whole entry)": "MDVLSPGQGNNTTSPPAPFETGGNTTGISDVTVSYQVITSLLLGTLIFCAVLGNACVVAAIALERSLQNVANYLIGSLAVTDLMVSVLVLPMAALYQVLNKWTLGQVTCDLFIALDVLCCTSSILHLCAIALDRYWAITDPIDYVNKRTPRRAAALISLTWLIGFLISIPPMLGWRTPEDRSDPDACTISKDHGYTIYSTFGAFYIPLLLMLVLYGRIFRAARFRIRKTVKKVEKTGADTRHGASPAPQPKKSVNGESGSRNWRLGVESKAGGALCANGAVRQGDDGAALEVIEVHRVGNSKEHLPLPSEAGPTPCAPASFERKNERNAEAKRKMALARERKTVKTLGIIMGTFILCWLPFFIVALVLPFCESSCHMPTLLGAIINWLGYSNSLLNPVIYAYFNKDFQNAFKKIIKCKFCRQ", "assay": "Displacement of [3H]-8-OH-DPAT from 5-HT1A receptor (unknown origin) assessed as inhibition binding at 10 uM relative to control"}, "[23]": {"assay": "Tmax in male Sprague-Dawley rat CSF at 1 mg/kg, iv measured upto 8 hrs by LC-MS/MS analysis", "format": "ADME, organism-based, Cerebrospinal fluid"}, "[24]": {"tested_on": "Brain", "assay": "Drug binding in male C57BL/6J mouse brain homogenate at 1 mg/kg, iv measured upto 8 hrs by LC-MS/MS analysis", "format": "ADME, organism-based", "conditions": "in vivo"}, "[25]": {"assay": "Renal clearance in Wistar rat plasma at 1 mg/kg, iv measured upto 48 hrs", "format": "ADME, organism-based"}, "[26]": {"assay": "AUCinf in Wistar rat plasma at 1 mg/kg, iv measured upto 48 hrs", "format": "ADME, organism-based"}, "[27]": {"assay": "Ex vivo binding in C57BL/6J mouse brain frontal cortex assessed as inhibition of [3H]Cimbi-36 binding at 1 mg/kg, sc measured after 300 mins by liquid scintillation counting analysis (reference value: 0%)", "format": "functional", "conditions": "5 h"}, "[28]": {"tested_on": "Mus musculus", "assay": "Induction of neuroplasticity in C57BL/6J mouse assessed as increase in EGR2 mRNA expression in brain frontal cortex at 0.3 mg/kg, sc single dose by RT-PCR analysis", "format": "functional, organism-based"}, "[29]": {"target": "T1, 5-hydroxytryptamine receptor 2A", "assay": "Binding affinity to human [125I]LSD-labeled 5-HT2A receptor expressed in HEK293 cell membrane incubated for 60 mins", "format": "cell membranes"}, "[30]": {"assay": "Metabolic stability in dog liver microsomes assessed as half life at 1 uM incubated for 120 mins in presence of NADPH", "format": "ADME, Canis lupus familiaris, Microsome"}, "[31]": {"tested_on": "Mus musculus", "assay": "Psychedelic effect in C57BL/6J mouse assessed as induction of 5-HT2A receptor dependent maximal head-twitch responses by visual observation at 1 to 3 mg/kg, sc at 40 mins post- administration measured upto 360 mins", "format": "functional, organism-based", "conditions": "dose 1-3 mg/kg"}, "[32]": {"target": "T1, 5-hydroxytryptamine receptor 2A", "assay": "Agonist activity at human 5-HT2A receptor expressed in HEK293 cells assessed as maximal IP2 production measured after 30 mins incubation by HTRF assay relative to control", "format": "functional, cell-based", "conditions": "filed as agonist"}, "[33]": {"assay": "Ex vivo binding in C57BL/6J mouse brain frontal cortex assessed as specific binding [3H]Cimbi-36 at 1 mg/kg, sc measured after 160 mins by liquid scintillation counting analysis (reference value: 1092 +/- 53)", "format": "functional", "conditions": "2.667 h"}, "[34]": {"tested_on": "Hippocampus", "assay": "Induction of neuroplasticity in C57BL/6J mouse assessed as increase in EGR2 mRNA expression in brain hippocampus at 3 mg/kg, sc single dose by RT-PCR analysis", "format": "functional, organism-based"}}, "note": "Active and inactive are the calls of the source. No cut-off for these calls is given here."}
{"smiles": "COc1cc([Se]C(F)(F)F)c(OC)cc1CCN.Cl", "values": [{"measurement": "MRT inf", "setting": "[1]", "value": 1.98, "unit": "h"}, {"measurement": "EC50", "setting": "[2]", "value": 0.0036, "unit": "µM"}, {"measurement": "Activity", "setting": "[3]", "value": "> 98", "unit": "%"}, {"measurement": "Activity", "setting": "[4]", "value": 2446, "unit": "cm"}, {"measurement": "inhibition", "setting": "[5]", "value": 90, "unit": "%"}, {"measurement": "AUC(0-t) at 48 h", "setting": "[6]", "value": 1860, "unit": "ng·h/mL"}, {"measurement": "Cmax", "setting": "[7]", "value": 18.6, "unit": "ng/mL"}, {"measurement": "AUC(0-t) at 8 h", "setting": "[8]", "value": 207, "unit": "ng·h/mL"}, {"measurement": "Tmax", "setting": "[9]", "value": 0.5, "unit": "h"}, {"measurement": "Ki", "setting": "[10]", "value": 0.949, "unit": "µM"}, {"measurement": "EC50", "setting": "[11]", "value": 0.126, "unit": "µM"}, {"measurement": "AUC(0-t) at 24 h", "setting": "[12]", "value": 366, "unit": "ng·h/mL"}, {"measurement": "Kp at 8 h", "setting": "[13]", "value": 0.2}, {"measurement": "inhibition in vivo at 1 mg/kg", "setting": "[14]", "value": 27, "unit": "%"}, {"measurement": "inhibition", "setting": "[15]", "value": 86, "unit": "%"}, {"measurement": "half-life", "setting": "[16]", "value": 6.78, "unit": "h"}, {"measurement": "inhibition in vivo at 1 mg/kg", "setting": "[17]", "value": 33, "unit": "%"}, {"measurement": "AUC(0-inf)", "setting": "[18]", "value": 3280, "unit": "ng·h/mL"}, {"measurement": "clearance", "setting": "[19]", "value": 15.8, "unit": "mL/min/kg"}, {"measurement": "Vd", "setting": "[20]", "value": 5.29, "unit": "L/kg"}, {"measurement": "Activity", "setting": "[21]", "value": "inactive"}, {"measurement": "inhibition", "setting": "[22]", "value": 98, "unit": "%"}, {"measurement": "Tmax", "setting": "[23]", "value": 4.98, "unit": "min"}, {"measurement": "Activity", "setting": "[24]", "value": "> 98", "unit": "%"}, {"measurement": "CL renal at 48 h", "setting": "[25]", "value": 1.13, "unit": "mL/min/kg"}, {"measurement": "AUC(0-inf)", "setting": "[26]", "value": 50.7, "unit": "ng·h/mL"}, {"measurement": "inhibition in vivo at 1 mg/kg", "setting": "[27]", "value": 22, "unit": "%"}, {"measurement": "Activity", "setting": "[28]", "value": "Active"}, {"measurement": "Ki", "setting": "[29]", "value": 0.0041, "unit": "µM"}, {"measurement": "half-life at 1 µM", "setting": "[30]", "value": "> 2", "unit": "h"}, {"measurement": "Activity", "setting": "[31]", "value": "Active"}, {"measurement": "Emax", "setting": "[32]", "value": 87, "unit": "%"}, {"measurement": "Activity", "setting": "[33]", "value": 736}, {"measurement": "Activity", "setting": "[34]", "value": "inactive"}]}
